Source: ChEMBL document CHEMBL1201862, “PubChem BioAssay data set” (2004)
Where “and” joins values, the source holds several entries; their conditions need not be identical. Identical values can stand only once.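 Cultured in 96-well plates, cells were exposed to test compound for 48 hours across five concentrations. At the GI50, growth is halved.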 Calls of active or inactive are those of the source. Cut-off read from the data, not from the text of the source: active = GI50 up to about 1.1 µM and inactive = higher.

What was measured:
Experiment in all cases: NCI-60 cell line screen, 48 h
[1] = tested on: MDA-MB-435
[2] = tested on: ACHN
[3] = tested on: CAKI-1
[4] = tested on: SN12C
[5] = tested on: NCI/ADR-RES
[6] = tested on: EKVX
[7] = tested on: IGROV-1
[8] = tested on: SK-MEL-2
[9] = tested on: HT-29
[10] = tested on: MCF7
[11] = tested on: COLO 205
[12] = tested on: SF-295
[13] = tested on: BT-549
[14] = tested on: HCT-116
[15] = tested on: KM12
[16] = tested on: PC-3
[17] = tested on: A498
[18] = tested on: SNB-19
[19] = tested on: NCI-H23
[20] = tested on: T47D

Row | SMILES | GI50 [1] | GI50 [2] | GI50 [3] | GI50 [4] | GI50 [5] | GI50 [6] | GI50 [7] | GI50 [8] | GI50 [9] | GI50 [10] | GI50 [11] | GI50 [12] | GI50 [13] | GI50 [14] | GI50 [15] | GI50 [16] | GI50 [17] | GI50 [18] | GI50 [19] | GI50 [20]
1 | COc1ccc(/C=C2/N/C(=N\N=C/C(O)C(O)C(O)CO)NC2=O)cc1 (stereo unspecified) | > 100 µM (inactive) and 74.1 µM (inactive) | > 100 µM (inactive) and 89.5 µM (inactive) | > 100 µM (inactive) | > 100 µM (inactive) | > 100 µM (inactive) | > 100 µM (inactive) | > 100 µM (inactive) and 76.7 µM (inactive) | > 100 µM (inactive) | > 100 µM (inactive) and 63.7 µM (inactive) | 15.9 µM (inactive) | 91.4 µM (inactive) | > 100 µM (inactive) | 55.8 µM (inactive) and 28 µM (inactive) | > 100 µM (inactive) | – | – | – | – | – | –
2 | CC(C)(C)OC(=O)NC(Cc1ccc(O)cn1)C(=O)O (stereo unspecified) | > 100 µM (inactive) | > 100 µM (inactive) | > 100 µM (inactive) | > 100 µM (inactive) | > 100 µM (inactive) | > 100 µM (inactive) | > 100 µM (inactive) | – | > 100 µM (inactive) | > 100 µM (inactive) | > 100 µM (inactive) | > 100 µM (inactive) | > 100 µM (inactive) | > 100 µM (inactive) | > 100 µM (inactive) | > 100 µM (inactive) | > 100 µM (inactive) | > 100 µM (inactive) | > 100 µM (inactive) | –
3 | CCCCC(C)(C/C=C/[C@@H]1[C@@H](C(O)CCCCCC(=O)OC)C(=O)C[C@H]1O[Si](C)(C)C(C)(C)C)O[Si](C)(C)C (stereo partly specified) | 74.3 µM (inactive) | 86.5 µM (inactive) | 38.4 µM (inactive) | > 100 µM (inactive) | > 100 µM (inactive) | > 100 µM (inactive) | > 100 µM (inactive) | 58.7 µM (inactive) | 78.5 µM (inactive) | 42 µM (inactive) | > 100 µM (inactive) | > 100 µM (inactive) | > 100 µM (inactive) | 81.1 µM (inactive) | 58.3 µM (inactive) | 34.9 µM (inactive) | – | > 100 µM (inactive) | > 100 µM (inactive) | –
4 | O=C1/C(=C/c2cccc([N+](=O)[O-])c2)Cc2ccccc21 | > 100 µM (inactive) | > 100 µM (inactive) | > 100 µM (inactive) | > 100 µM (inactive) | > 100 µM (inactive) | > 100 µM (inactive) | > 100 µM (inactive) | > 100 µM (inactive) | > 100 µM (inactive) | > 100 µM (inactive) | > 100 µM (inactive) | > 100 µM (inactive) | > 100 µM (inactive) | 39.7 µM (inactive) | 86.5 µM (inactive) | > 100 µM (inactive) | – | > 100 µM (inactive) | 73.1 µM (inactive) | –
5 | O=C1/C(=C/c2cccc3ccccc23)Cc2ccccc21 | – | 36.5 µM (inactive) | 25.6 µM (inactive) | 49.5 µM (inactive) | 52.2 µM (inactive) | 26.3 µM (inactive) | 41.4 µM (inactive) | – | 32.7 µM (inactive) | 5.93 µM (inactive) | – | – | 13.2 µM (inactive) | – | 35.9 µM (inactive) | 16.9 µM (inactive) | 37 µM (inactive) | 17.9 µM (inactive) | 17.1 µM (inactive) | –
6 | CC(=O)Oc1ccc(-c2c(OC(C)=O)c(OC(C)=O)c(-c3ccc(OC(C)=O)c(OC(C)=O)c3)c(OC(C)=O)c2OC(C)=O)cc1 | 16.9 µM (inactive) | 16.4 µM (inactive) | 21.3 µM (inactive) | 18.8 µM (inactive) | 39.7 µM (inactive) | 0.553 µM (active) | 15.5 µM (inactive) | 16.1 µM (inactive) | 18.2 µM (inactive) | 23.7 µM (inactive) | 17.7 µM (inactive) | 6.03 µM (inactive) | – | 18.8 µM (inactive) | 14.4 µM (inactive) | 15.9 µM (inactive) | 20.1 µM (inactive) | 15.8 µM (inactive) | 19 µM (inactive) | 10.6 µM (inactive)
